Legend:
hA2AAR = biological target: T1, hA2AAR (Homo sapiens, UniProt P29274); assay: Radioligand competition binding assay at hA2AAR ([3H]ZM241385)
T1 construct: expressed in transfected cells; host or cells: HeLa-A2A cells (membranes)
Description: Adenosine A2A receptor competition binding experiments were carried out in membranes from HeLa-A2A cells. On the day of assay, membranes were defrosted and re-suspended in incubation buffer 50 mM Tris-HCl, 1 mM EDTA, 10 mM MgCl2 and 2 UI/mL adenosine deaminase (pH = 7.4). Each reaction well of a GF/C multiscreen plate (Millipore, Madrid, Spain), prepared in duplicate, contained 10 μg of protein, 3 nM [^3H]ZM241385 and test compound. Nonspecific binding was determined in the presence of 50 μM NECA. The reaction mixture was incubated at 25 °C for 30 min, after which samples were filtered and measured in a microplate beta scintillation counter (Microbeta Trilux, Perkin Elmer, Madrid, Spain).

hA3AR [1] = biological target: T2, hA3AR (Homo sapiens, UniProt P0DMS8); assay: Radioligand competition binding assay at hA3AR ([3H]NECA); parameters: expressed in transfected cells; host or cells: HeLa-A3 cell line (membranes prepared in laboratory); settings: 0.5 nM [3H]NECA; mean ± SEM (n = 2); read-out: Affinity, Ki, hA3AR
T2 sequence (P0DMS8 1-318): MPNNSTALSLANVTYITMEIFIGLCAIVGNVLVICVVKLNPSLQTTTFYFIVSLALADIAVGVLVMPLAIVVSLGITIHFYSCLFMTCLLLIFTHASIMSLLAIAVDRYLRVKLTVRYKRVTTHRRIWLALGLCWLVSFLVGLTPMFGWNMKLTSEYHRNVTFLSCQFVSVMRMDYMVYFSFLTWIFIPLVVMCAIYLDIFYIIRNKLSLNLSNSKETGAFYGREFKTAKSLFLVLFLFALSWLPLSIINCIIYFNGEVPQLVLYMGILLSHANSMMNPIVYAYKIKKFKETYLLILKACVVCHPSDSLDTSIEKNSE

hA1AR = biological target: T3, hA1AR (Homo sapiens, UniProt P30542); assay: Radioligand competition binding assay at hA1AR ([3H]DPCPX)
T3 construct: host or cells: CHO-A1 cells (membranes)
T3 sequence (P30542 1-326): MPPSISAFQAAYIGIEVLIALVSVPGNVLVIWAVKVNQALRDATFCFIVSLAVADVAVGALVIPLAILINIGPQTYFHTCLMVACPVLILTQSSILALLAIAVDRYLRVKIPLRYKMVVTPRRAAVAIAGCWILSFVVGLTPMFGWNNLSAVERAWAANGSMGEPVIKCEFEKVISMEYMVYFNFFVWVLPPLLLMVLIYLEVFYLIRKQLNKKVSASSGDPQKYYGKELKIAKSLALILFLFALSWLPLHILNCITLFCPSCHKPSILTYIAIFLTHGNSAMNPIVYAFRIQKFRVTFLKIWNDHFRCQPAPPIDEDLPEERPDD
Description: Adenosine A1 receptor competition binding experiments were carried out in membranes from CHO-A1 cells (Euroscreen, Gosselies, Belgium). On the day of assay, membranes were defrosted and re-suspended in incubation buffer 20 mM Hepes, 100 mM NaCl, 10 mM MgCl2, 2 UI/mL adenosine deaminase (pH = 7.4). Each reaction well of a GF/C multiscreen plate (Millipore, Madrid, Spain), prepared in duplicate, contained 15 μg of protein, 2 nM [^3H]DPCPX and test compound. Nonspecific binding was determined in the presence of 10 μM (R)-PIA. The reaction mixture was incubated at 25 °C for 60 min, after which samples were filtered and measured in a microplate beta scintillation counter (Microbeta Trilux, Perkin Elmer, Madrid, Spain).

hA2BAR = biological target: T4, hA2BAR (Homo sapiens, UniProt P29275); assay: Radioligand competition binding assay at hA2BAR ([3H]DPCPX)
T4 construct: host or cells: HEK-293-A2B cells (membranes)
T4 sequence (P29275 1-332): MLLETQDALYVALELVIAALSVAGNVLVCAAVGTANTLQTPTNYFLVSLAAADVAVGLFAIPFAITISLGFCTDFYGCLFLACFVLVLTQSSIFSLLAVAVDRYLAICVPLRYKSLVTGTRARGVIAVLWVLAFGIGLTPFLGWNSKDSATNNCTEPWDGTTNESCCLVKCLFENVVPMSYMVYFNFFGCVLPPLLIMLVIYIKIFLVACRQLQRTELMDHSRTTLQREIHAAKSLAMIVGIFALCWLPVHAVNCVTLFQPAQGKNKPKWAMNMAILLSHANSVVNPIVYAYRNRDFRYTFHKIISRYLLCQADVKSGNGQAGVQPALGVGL
Description: Adenosine A2B receptor competition binding experiments were carried out in membranes from HEK-293-A2B cells (Euroscreen, Gosselies, Belgium) prepared following the provider’s protocol. On the day of assay, membranes were defrosted and re-suspended in incubation buffer 50 mM Tris-HCl, 1 mM EDTA, 10 mM MgCl2, 0.1 mM benzamidine, 10 μg/mL bacitracine and 2 UI/mL adenosine deaminase (pH = 6.5). Each reaction well prepared in duplicate contained 18 μg of protein, 35 nM [^3H]DPCPX and test compound. Nonspecific binding was determined in the presence of 400 μM NECA. The reaction mixture was incubated at 25 °C for 30 min, after which samples were filtered through a multiscreen GF/C microplate and measured in a microplate beta scintillation counter (Microbeta Trilux, Perkin Elmer, Madrid, Spain).

hA3AR [2] = biological target: T2, hA3AR; assay: Cyclic AMP accumulation functional assay at hA3AR expressed in CHO cells; assay type: cell-based; parameters: expressed in transfected cells
Description: Human adenosine A3 receptor functional experiments were carried out in CHO-A3#18 cell line. The day before the assay, the cells were seeded on the 96-well culture plate (Falcon 353072, Corning, Glendale, AZ, USA). The cells are washed with wash buffer (Dulbecco’s modified eagle’s medium nutrient mixture F-12 ham (Sigma D8062), 25 mM Hepes; pH = 7.4). Wash buffer is replaced by incubation buffer (Dulbecco’s modified eagle’s medium nutrient mixture F-12 ham (Sigma D8062), 25 mM Hepes, 30 μM Rolipram (Sigma R6520); pH = 7.4). Test compounds and MRS1220 as reference compound (Sigma M228) are added and the cells incubated at 37 °C for 15 min. After, 0.1 μM of 5′-N-ethylcarboxamido-adenosine (NECA) (Sigma E2387) is added and the cells incubated at 37 °C for 10 min. Forskolin (Sigma F3917, Sigma-Aldrich, St. Louis, MO, USA) is added and incubated at 37 °C for 5 min. After incubation, the amount of cAMP is determined using a cAMP Biotrak Enzymeimmunoassay (EIA) System Kit (GE Healthcare RPN225, GE Healthcare, Chicago, IL, USA).

T1 sequence (P29274 whole entry): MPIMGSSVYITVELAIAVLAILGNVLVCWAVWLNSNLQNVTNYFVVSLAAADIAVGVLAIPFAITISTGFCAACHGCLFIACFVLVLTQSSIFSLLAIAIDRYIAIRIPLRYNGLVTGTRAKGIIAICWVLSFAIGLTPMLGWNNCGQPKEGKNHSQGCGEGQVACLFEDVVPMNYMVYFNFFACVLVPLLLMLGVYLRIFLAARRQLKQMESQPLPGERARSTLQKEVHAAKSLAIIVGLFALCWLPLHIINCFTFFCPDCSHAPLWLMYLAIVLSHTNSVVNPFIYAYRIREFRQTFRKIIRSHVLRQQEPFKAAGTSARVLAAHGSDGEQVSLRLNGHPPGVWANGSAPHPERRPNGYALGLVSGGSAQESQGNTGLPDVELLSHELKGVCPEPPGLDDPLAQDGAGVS

Compound: CN(C)C(=O)[C@H]1[Se][C@@H](n2cnc3c(NCc4cccc(F)c4)nc(Cl)nc32)[C@H](O)[C@@H]1O [Compound 9i, (2S,3S,4R,5R)-5-(2-chloro-6-((3-fluorobenzyl)amino)-9H-purin-9-yl)-3,4-dihydroxy-N,N-dimethyltetrahydroselenophene-2-carboxamide]
- inhibition at 10 µM (hA2AAR): 9%
- Ki (hA3AR [1]): 238 ± 37 nM
- inhibition at 10 µM (hA1AR): 34%
- inhibition at 10 µM (hA2BAR): 14%

Compound: CN(C)C(=O)[C@H]1[Se][C@@H](n2cnc3c(NCc4cccc(F)c4)ncnc32)[C@H](O)[C@@H]1O [Compound 9c, (2S,3S,4R,5R)-5-(6-((3-fluorobenzyl)amino)-9H-purin-9-yl)-3,4-dihydroxy-N,N-dimethyltetrahydroselenophene-2-carboxamide]
- inhibition at 10 µM (hA2AAR): 12%
- Ki (hA3AR [1]): 2020 ± 170 nM
- inhibition at 10 µM (hA1AR): 13%
- inhibition at 10 µM (hA2BAR): 19%

Compound: CNc1ncnc2c1ncn2[C@@H]1[Se][C@H](C(=O)N(C)C)[C@@H](O)[C@H]1O [Compound 9b, (2S,3S,4R,5R)-3,4-dihydroxy-N,N-dimethyl-5-(6-(methylamino)-9H-purin-9-yl)tetrahydroselenophene-2-carboxamide]
- inhibition at 10 µM (hA2AAR): 3%
- Ki (hA3AR [1]): 609 ± 47 nM
- inhibition at 10 µM (hA1AR): 9%
- inhibition at 10 µM (hA2BAR): 9%

Compound: CN(C)C(=O)[C@H]1[Se][C@@H](n2cnc3c(NCc4cccc(Cl)c4)ncnc32)[C@H](O)[C@@H]1O [Compound 9d, (2S,3S,4R,5R)-5-(6-((3-chlorobenzyl)amino)-9H-purin-9-yl)-3,4-dihydroxy-N,N-dimethyltetrahydroselenophene-2-carboxamide]
- inhibition at 10 µM (hA2AAR): 4%
- Ki (hA3AR [1]): 1190 ± 160 nM
- inhibition at 10 µM (hA1AR): 23%
- inhibition at 10 µM (hA2BAR): 15%

Compound: CNc1nc(Cl)nc2c1ncn2[C@@H]1[Se][C@H](C(=O)N(C)C)[C@@H](O)[C@H]1O [Compound 9h, (2S,3S,4R,5R)-5-(2-chloro-6-(methylamino)-9H-purin-9-yl)-3,4-dihydroxy-N,N-dimethyltetrahydroselenophene-2-carboxamide]
- inhibition at 10 µM (hA2AAR): 5%
- Ki (hA3AR [1]): 1060 ± 140 nM
- inhibition at 10 µM (hA1AR): 58%
- inhibition at 10 µM (hA2BAR): 19%

Compound: CN(C)C(=O)[C@H]1[Se][C@@H](n2cnc3c(N)nc(Cl)nc32)[C@H](O)[C@@H]1O [Compound 9g, (2S,3S,4R,5R)-5-(2-chloro-6-amino-9H-purin-9-yl)-3,4-dihydroxy-N,N-dimethyltetrahydroselenophene-2-carboxamide]
- inhibition at 10 µM (hA2AAR): 3%
- Ki (hA3AR [1]): 3250 ± 370 nM
- inhibition at 10 µM (hA1AR): 9%
- inhibition at 10 µM (hA2BAR): 25%

Compound: CN(C)C(=O)[C@H]1[Se][C@@H](n2cnc3c(NCc4cccc(I)c4)nc(Cl)nc32)[C@H](O)[C@@H]1O [Compound 9l, (2S,3S,4R,5R)-5-(2-chloro-6-((3-iodobenzyl)amino)-9H-purin-9-yl)-3,4-dihydroxy-N,N-dimethyltetrahydroselenophene-2-carboxamide]
- inhibition at 10 µM (hA2AAR): 10%
- Ki (hA3AR [1]): 253 ± 29 nM
- Behaviour in cAMP functional assay at hA3AR (hA3AR [2]): antagonist activity
- Kb (hA3AR [2]; inhibition of NECA-induced cAMP accumulation): 114 nM
- inhibition at 10 µM (hA1AR): 68%
- inhibition at 10 µM (hA2BAR): 23%

Compound: CN(C)C(=O)[C@H]1[Se][C@@H](n2cnc3c(NCc4cccc(Br)c4)nc(Cl)nc32)[C@H](O)[C@@H]1O [Compound 9k, (2S,3S,4R,5R)-5-(6-((3-bromobenzyl)amino)-2-chloro-9H-purin-9-yl)-3,4-dihydroxy-N,N-dimethyltetrahydroselenophene-2-carboxamide]
- inhibition at 10 µM (hA2AAR): 10%
- Ki (hA3AR [1]): 180 ± 12 nM
- inhibition at 10 µM (hA1AR): 58%
- inhibition at 10 µM (hA2BAR): 27%

Compound: CN(C)C(=O)[C@H]1[Se][C@@H](n2cnc3c(NCc4cccc(Cl)c4)nc(Cl)nc32)[C@H](O)[C@@H]1O [Compound 9j, (2S,3S,4R,5R)-5-(2-chloro-6-((3-chlorobenzyl)amino)-9H-purin-9-yl)-3,4-dihydroxy-N,N-dimethyltetrahydroselenophene-2-carboxamide]
- inhibition at 10 µM (hA2AAR): 13%
- Ki (hA3AR [1]): 195 ± 40 nM
- inhibition at 10 µM (hA1AR): 63%
- inhibition at 10 µM (hA2BAR): 27%

Compound: CN(C)C(=O)[C@H]1[Se][C@@H](n2cnc3c(NCc4cccc(I)c4)ncnc32)[C@H](O)[C@@H]1O [Compound 9f, (2S,3S,4R,5R)-3,4-dihydroxy-5-(6-((3-iodobenzyl)amino)-9H-purin-9-yl)-N,N-dimethyltetrahydroselenophene-2-carboxamide]
- inhibition at 10 µM (hA2AAR): 32%
- Ki (hA3AR [1]): 22.7 ± 8.9 nM
- inhibition at 10 µM (hA1AR): 36%

Compound: CN(C)C(=O)[C@H]1[Se][C@@H](n2cnc3c(N)ncnc32)[C@H](O)[C@@H]1O [Compound 9a, (2S,3S,4R,5R)-5-(6-amino-9H-purin-9-yl)-3,4-dihydroxy-N,N-dimethyltetra hydroselenophene-2-carboxamide]
- inhibition at 10 µM (hA2AAR): 22%
- Ki (hA3AR [1]): 3710 ± 600 nM
- inhibition at 10 µM (hA1AR): 16%
- inhibition at 10 µM (hA2BAR): 17%

Compound: CN(C)C(=O)[C@H]1[Se][C@@H](n2cnc3c(NCc4cccc(Br)c4)ncnc32)[C@H](O)[C@@H]1O [Compound 9e, (2S,3S,4R,5R)-5-(6-((3-bromobenzyl)amino)-9H-purin-9-yl)-3,4-dihydroxy-N,N-dimethyltetrahydroselenophene-2-carboxamide]
- inhibition at 10 µM (hA2AAR): 37%
- Ki (hA3AR [1]): 36.3 ± 12.7 nM
- inhibition at 10 µM (hA1AR): 43%
